The text below walks through data of patent publication US9970037B2, “Methods and materials for making simvastatin and related compounds” (The Regents of the University of California, priority 2006, dated 2018).

For orientation: Km means the substrate concentration at which the rate is half of its maximum. In general, kcat refers to the maximal rate divided by the concentration of active sites.

In one data set the target is T1, LovD (Aspergillus terreus, UniProt Q9Y7D1).
T1 sequence (Q9Y7D1 1-413): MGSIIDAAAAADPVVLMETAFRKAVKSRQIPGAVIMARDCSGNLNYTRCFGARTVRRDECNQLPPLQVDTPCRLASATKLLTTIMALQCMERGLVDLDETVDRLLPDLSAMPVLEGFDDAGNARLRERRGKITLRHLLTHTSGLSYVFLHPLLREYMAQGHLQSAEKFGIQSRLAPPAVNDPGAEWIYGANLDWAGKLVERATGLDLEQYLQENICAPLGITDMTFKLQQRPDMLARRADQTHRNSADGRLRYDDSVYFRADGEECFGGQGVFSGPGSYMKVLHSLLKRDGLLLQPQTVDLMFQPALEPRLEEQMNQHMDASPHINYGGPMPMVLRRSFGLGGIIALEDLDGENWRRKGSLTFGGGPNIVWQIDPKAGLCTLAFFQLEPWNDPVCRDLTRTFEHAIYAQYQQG
In words: LovD transacylation assay: acyl transfer from acyl thioester to C8 hydroxyl of monacolin J, HPLC. It is filed as biochemical. Also on record: 6xHis (N); made in house; host or cells: E. coli BL21(DE3)/pAW31 (pET28a). As to conditions: for substrate competence for LovD / apparent kcat (initial turnover rate in the linear range) of monacolin J acylation: 1 mM monacolin J; for substrate competence for LovD: 4 mM acyl-CoA, 10 uM LovD, 10 hours; for Initial Velocity (ki): 1 mM MJ, 4 mM thioester substrate, 10 uM pure LovD, rate of initial turnover in the linear range; for Initial Velocity (ki) / apparent kcat (initial turnover rate in the linear range) of monacolin J acylation: 50 mM HEPES, pH 7.9; for apparent kcat (initial turnover rate in the linear range) of monacolin J acylation: 10 μM LovD, 4 mM acyl donor. How it is done:
We first examined if an acyl-CoA can be used as substrate for the transacylation reaction. The uninterrupted gene of LovD was amplified from A. terreus genomic DNA using splice by overlap extension PCR and was inserted into the pET28a expression vector. Overexpression of soluble, N-terminal 6×His fusion LovD was performed in E. coli strain BL21(DE3)/pAW31. LovD was purified using Nickel-NTA affinity column to homogeneity (final yield˜40 mg/L). The substrate monacolin J (1 mM) was prepared through the LiOH hydrolysis of lovastatin and was added to a reaction mixture containing pure LovD (10 μM) and butyryl-CoA (4 mM), which is a commercially available acyl-CoA that best mimics the natural α-methylbutyrate side chain. The reaction mixture was incubated at room temperature, extracted with ethyl acetate and analyzed by HPLC and LC-MS (FIG. 5).
We assayed the tolerance of LovD towards different acyl substituents by performing the transacylation assay with various commercially available acyl-CoAs (Table 1A). All assays were perform with 1 mM monacolin J, 4 mM acyl-CoA and 10 uM LovD for 10 hours.
Expression and purification of LovD has been previously described in detail (see, e.g., Xie et al., 2006, Chem Biol 13: 1161-1169). The assays were performed at room temperature in 50 mM HEPES, pH 7.9. The initial velocities (ki) of the acyl substrates were determined with 10 μM LovD, 1 mM monacolin J and 4 mM of the thioester. The reaction mixture at different time points was quenched by trifluoroacetic acid (TFA), extracted with ethyl acetate, evaporated to dryness and redissolved in acetonitrile. The percent conversion of monacolin J to simvastatin was determined by HPLC analysis (C18). The linear range of the turnover rate is reported as ki in Table 1B. To determine the Km of DMB-S-MMP, the concentration of monacolin J is fixed at 2 mM, while the concentration of DMB-S-MMP was varied from 0.2 mM to 10 mM. DMSO is added to a final concentration of 5% to facilitate solubilization of DMB-S-MMP. To obtain Km of monacolin J, DMB-S-MMP concentration is fixed at 2 mM, while the concentration of monacolin J is varied from 0.2 mM to 5 mM.

Another data set concerns the target T2, BioH (Escherichia coli, UniProt P13001).
T2 construct: The bioH gene was amplified from E. coli genomic DNA by PCR with flanking restriction sites NdeI and EcoRI; 6xHis (N); made in house; host or cells: E. coli BL21(DE3)/pXK8 (pET28a)
T2 sequence (P13001 1-256): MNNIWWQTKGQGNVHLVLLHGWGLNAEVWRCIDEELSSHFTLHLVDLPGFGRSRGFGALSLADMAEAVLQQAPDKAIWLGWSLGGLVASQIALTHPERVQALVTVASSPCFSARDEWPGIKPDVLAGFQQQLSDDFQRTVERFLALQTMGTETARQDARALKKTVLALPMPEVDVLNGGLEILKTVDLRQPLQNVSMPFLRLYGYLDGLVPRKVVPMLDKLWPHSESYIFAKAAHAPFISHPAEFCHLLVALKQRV
As to the kind of experiment: BioH enzymatic hydrolysis assay of dimethylbutyryl thioesters, HPLC 234 nm. It is filed as biochemical. As to conditions: 1 mM substrate, 10 nM BioH. The protocol: (§1) The hydrolysis assays were performed at room temperature in 50 mM HEPES, pH 7.9. The thioester substrate DMB-S-MMP was added to final concentration between 0.1 mM and 1.0 mM. To facilitate solubilization of DMB-S-MMP, DMSO was added to a final concentration of 10% for all the samples. The reaction was initiated with the addition of BioH (0.01 μM) and quenched at desired time points (10, 20, 30 minutes) by adding equal volume of EA/1% AcOH. The organic phase was separated, dried and redissolved in 20 μL of ACN and analyzed with HPLC. The conversions of DMB-S-MMP to DMB-S-MPA were quantified by integration of the peaks at 234 nm. Comparison of the BioH catalytic efficiency towards the three dimethylbutyryl thioesters were performed at 1 mM substrate concentration and 10 nM BioH concentration.

A further data set deals with E. coli BL21(DE3)/pAW31. In words: Whole cell biocatalysis with E. coli overexpressing LovD. It is filed as cell-based, Escherichia coli. As to conditions: 4 mM acyl donor. How it is done: The BL21(DE3)/pAW31 overexpression strain was grown in a shake flask (200 mL) to an OD600 of 1.0, at which time 1 mM IPTG, 0.8 mM monacolin J and 4 mM of either benzoyl-SNAC or benzoyl-SMTG were added to the culture. Expression of LovD and bioconversion was performed at 18° C. The culture was extracted and analyzed for the formation of 8-benzoyl-monacolin J. When supplemented with benzoyl-SNAC, 84% conversion of monacolin J was detected within 20 hours post-induction. The product was lactonized and purified by a single silica-gel chromatography step. The NMR spectra confirmed the regioselective benzoylation of the C8 hydroxyl group as the diagnostic H8 multiplet is shifted downfield to δ 5.61.
Fermentation conditions: 500 mL culture with LB media with 30 mg/L kanamycin. At OD600 of 1.0, cells were concentrated to a final OD600 of 5.0 and induced with 1 mM IPTG. Substrates monacolin J and α-dimethylbutyryl-SNAC were added to a final concentration of 1 mM and 4 mM. At different time points, culture samples were collected, centrifuged, filtered and injected on to HPLC (20 μL). Extraction conditions: When maximum conversion was reached, the broth was acidified to pH of 2.0, extracted with ethyl acetate, dried and redissolved in toluene.
Whole-cell catalytic synthesis of simvastatin acid from MJ acid and DMB-S-MMP were performed as described (see, e.g., Xie et al., (2007) Appl Environ Microbiol 73: 2054-2060). The E. coli BL21(DE3)/pAW31 and YT2/pAW31 strains were cultured side-by-side for comparison. A single colony of the freshly transformed strains was used to inoculate a 5 mL LB culture supplemented with 35 mg/L kanamycin and grown overnight at 37° C. The next morning, 100 μL of the overnight culture was inoculated into 50 mL cultures containing LB broth, F1 minimal medium and F1 medium supplemented with 0.15 mg/L biotin. Growth rates were monitored by periodically measuring the OD600 reading. When OD600 reached ˜0.5, 100 μM IPTG was added to the culture and expression of LovD was performed at 20° C. for 16 hours. To mimic high density fermentation conditions, the cells were concentrated 10-fold before addition of substrates. Typically, a 14 mL aliquot of the culture was transferred to a 15 mL centrifuge tube and the cells were collected by centrifugation (4° C., 4000 g, 10 minutes). The cell pellet was gently resuspended in 1316 μl of the supernatant, followed by addition of 84 μl of a MJ acid stock solution (250 mM in H2O) (final concentration 15 mM). The concentrated culture was then separated into seven 200 μL samples and 1.2 μL of pure DMB-S-MMP was added to each sample (final concentration ˜25 mM). The culture was then shaken at 300 rpm at room temperature. At each time point, a total extraction was performed by adding 10 μL 20% SDS to lyse the cells, followed by liquid-liquid extraction with 500 μL EA/1% AcOH. The organic phase was removed, evaporated, and redissolved in 50 μL ACN for HPLC analysis. For the BL21(DE3) sample, an additional 1.2 μL aliquot of DMB-S-MMP was added after 12 hours to replenish the hydrolyzed substrates.
The E. coli BL21(DE3)/pAW31 strain was grown in LB medium at 37° C. to an OD600 of 0.5, at which time 100 μM IPTG was added to the culture and expression was performed at RT for 16 hours. A 10 ml culture was transferred to a 15 mL centrifuge tube. The cells were collected by centrifugation (4000 g, 10 minutes). The cell pellet was resuspended in 957 μl of the supernatant. The pH was adjusted to pH 7.9 with 1.0 N NaOH, followed by addition of 33 μl 450 mM MJ (final concentration 15 mM) and 6 μl pure DMB-S-MMP (final concentration ˜25 mM). The culture was then shaken at 300 rpm at room temperature. At each time point, a 4 μL aliquot was removed from the reaction mixture, quenched in 300 μL ethyl acetate containing 1% TFA.

Substrate in data set [1]: CCC(C)(C)C(=O)SCCC(=O)OC
In words: BioH enzymatic hydrolysis assay of dimethylbutyryl thioesters, HPLC 234 nm. It is filed as biochemical, Escherichia coli. As to conditions: other: 50 mM HEPES, pH 7.9, 10% DMSO, 0.01 μM BioH. How it is done: as §1

Consider `CC(=O)CC(=O)SCCNC(=O)CCNC(=O)[C@H](O)C(C)(C)COP(=O)(O)OP(=O)(O)OC[C@H]1O[C@@H](n2cnc3c(N)ncnc32)[C@H](O)[C@@H]1OP(=O)(O)O` [Acetoacetyl-CoA, reference compound], for which, at LovD, the “substrate competence for LovD” value is reported as “excellent substrates”.

Consider `CCOC(=O)CCSC(=O)C(C)(C)CC` [DMB-S-EMP, dimethylbutyryl-S-ethyl mercaptopropionate], for which the “Initial Velocity (ki)” value on LovD stood at 0.70 min⁻¹. For the same molecule, on BioH, the “rate of substrate hydrolysis by BioH relative to DMB-S-MMP” value is on record as “significantly attenuated”. As for `CCC(C)(C)C(=O)SCCCC(=O)OC` [DMB-S-MMB, dimethylbutyryl-S-methyl mercaptobutyrate], the “Initial Velocity (ki)” value at LovD is 0.78 min⁻¹. In the case of `CCC(C)(C)C(=O)SCC(=O)OC` [DMB-S-MTG, dimethylbutyryl-S-methyl thioglycolate], the “Initial Velocity (ki)” value on LovD turned out to be 0.03 min⁻¹. Further, the “decrease in the rate of hydrolysis by BioH relative to DMB-S-MMP” value at BioH was 2.5 fold. `CCC(C)(C)C(=O)SCCNC(C)=O` [DMB-S-NAC, α-dimethylbutyryl-S-N-acetylcysteamine]: the “Initial Velocity (ki)” value on LovD was determined as 0.02 min⁻¹. Moreover, the “conversion of monacolin J to simvastatin, low cell-density fermentation” value with E. coli BL21(DE3)/pAW31 (1 mM monacolin J, after two days of culturing) is reported as approximately 90%. For `CC(=O)NCCSC(=O)c1ccccc1` [benzoyl-SNAC], the “apparent kcat (initial turnover rate in the linear range) of monacolin J acylation” value (shortened to “apparent kcat”) at LovD was determined as 0.12 min⁻¹. The “conversion of monacolin J (benzoylation) in vivo” value in the data set with E. coli BL21(DE3)/pAW31 (0.8 mM monacolin J, 18° C., within 20 hours post-induction) was determined as 84%. In the case of `CCCC(=O)SCCNC(C)=O` [butyryl-SNAC], the “apparent kcat” value on LovD turned out to be 0.09 min⁻¹. For `CC(C)(COP(=O)(O)OP(=O)(O)OC[C@H]1O[C@@H](n2cnc3c(N)ncnc32)[C@H](O)[C@@H]1OP(=O)(O)O)[C@@H](O)C(=O)NCCC(=O)NCCSC(=O)CC(=O)O` [malonyl-CoA, reference compound], the “substrate competence for LovD” value on LovD is “inactive”.

In the case of `C[C@H]1C=C2C=C[C@H](C)[C@H](CC[C@@H]3C[C@@H](O)CC(=O)O3)[C@H]2[C@@H](O)C1` [monacolin J], the Km at LovD (DMB-S-MMP fixed at 2 mM, monacolin J 0.2-5 mM) was found to be 780 ± 120 µM.

`CCCCCCCCCCCCCCCC(=O)SCCNC(=O)CCNC(=O)[C@H](O)C(C)(C)COP(=O)(O)OP(=O)(O)OC[C@H]1O[C@@H](n2cnc3c(N)ncnc32)[C@H](O)[C@@H]1OP(=O)(O)O` [palmitoyl-CoA, reference compound]: on LovD, the “substrate competence for LovD” value was “inactive”. On to `CC[C@H](C)C(=O)SCCNC(C)=O` [α-S-methylbutyryl-SNAC], for which the “apparent kcat” value at LovD is approximately 0.04 min⁻¹.

Turning to `CC(O)CC(=O)SCCNC(=O)CCNC(=O)[C@H](O)C(C)(C)COP(=O)(O)OP(=O)(O)OC[C@H]1O[C@@H](n2cnc3c(N)ncnc32)[C@H](O)[C@@H]1OP(=O)(O)O` (stereo partly drawn) [β-hydroxylbutyryl-CoA, reference compound], the “substrate competence for LovD” value at LovD is on record as “excellent substrates”.

B1: BioH (Escherichia coli K-12) (protein)
chain: T2 sequence (P13001 1-256)
notes: The bioH gene was amplified from E. coli genomic DNA by PCR with flanking restriction sites NdeI and EcoRI; 6xHis (N); made in house; host or cells: E. coli BL21(DE3)/pXK8 (pET28a)
Take B1: in data set [1], the Km came to 229 ± 26 µM and the kcat is 260 ± 45 s⁻¹.
